Measured values taken from the supplement of paper PMC10307832.

How the values were obtained:
Experiment in all cases: relative viability (nuclei count vs DMSO), 5 days (fraction); higher = more cells survive
BX 795 + Olaparib = compound: O=C(NCCCNc1nc(Nc2cccc(NC(=O)N3CCCC3)c2)ncc1I)c1cccs1 [BX 795] + O=C(c1cc(Cc2n[nH]c(=O)c3ccccc23)ccc1F)N1CCN(C(=O)C2CC2)CC1 [Olaparib] (partner 8 µM)
Method in brief: (§1)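 Lung cancer cell lines were pin-tool dosed in 1536-well plates on the day after seeding, with either a lone drug or a fixed anchor-drug dose plus five library-drug doses (not always all listed) in √10 steps. Nuclei were counted on 4× images after 5 days. Relative viability is the ratio of treated-well to vehicle-well nuclei counts, with each value a median of duplicate plates.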

BX 795 + Bortezomib = compound: O=C(NCCCNc1nc(Nc2cccc(NC(=O)N3CCCC3)c2)ncc1I)c1cccs1 [BX 795] + CC(C)C[C@H](NC(=O)[C@H](Cc1ccccc1)NC(=O)c1cnccn1)B(O)O [Bortezomib] (partner 0.002 µM)
Method in brief: as §1

BX 795 + Palbociclib = compound: O=C(NCCCNc1nc(Nc2cccc(NC(=O)N3CCCC3)c2)ncc1I)c1cccs1 [BX 795] + CC(=O)c1c(C)c2cnc(Nc3ccc(N4CCNCC4)cn3)nc2n(C2CCCC2)c1=O [Palbociclib] (partner 0.5 µM)
Method in brief: as §1

BX 795 + Pemetrexed = compound: O=C(NCCCNc1nc(Nc2cccc(NC(=O)N3CCCC3)c2)ncc1I)c1cccs1 [BX 795] + Nc1nc2[nH]cc(CCc3ccc(C(=O)N[C@@H](CCC(=O)O)C(=O)O)cc3)c2c(=O)[nH]1 [Pemetrexed] (partner 0.2 µM)
Method in brief: as §1

BX 795 + Pictilisib = compound: O=C(NCCCNc1nc(Nc2cccc(NC(=O)N3CCCC3)c2)ncc1I)c1cccs1 [BX 795] + CS(=O)(=O)N1CCN(Cc2cc3nc(-c4cccc5[nH]ncc45)nc(N4CCOCC4)c3s2)CC1 [Pictilisib] (partner 1 µM)
Method in brief: as §1

Cell Line | relative viability (BX 795 + Olaparib; first compound 0.04 µM) | relative viability (BX 795 + Olaparib; first compound 0.1265 µM) | relative viability (BX 795 + Olaparib; first compound 0.4 µM) | relative viability (BX 795 + Olaparib; first compound 1.265 µM) | relative viability (BX 795 + Bortezomib; first compound 0.04 µM) | relative viability (BX 795 + Bortezomib; first compound 0.1265 µM) | relative viability (BX 795 + Bortezomib; first compound 0.4 µM) | relative viability (BX 795 + Bortezomib; first compound 1.265 µM) | relative viability (BX 795 + Palbociclib; first compound 0.04 µM) | relative viability (BX 795 + Palbociclib; first compound 0.1265 µM) | relative viability (BX 795 + Palbociclib; first compound 0.4 µM) | relative viability (BX 795 + Palbociclib; first compound 1.265 µM) | relative viability (BX 795 + Pemetrexed; first compound 0.04 µM) | relative viability (BX 795 + Pemetrexed; first compound 0.1265 µM) | relative viability (BX 795 + Pemetrexed; first compound 0.4 µM) | relative viability (BX 795 + Pemetrexed; first compound 1.265 µM) | relative viability (BX 795 + Pictilisib; first compound 0.04 µM) | relative viability (BX 795 + Pictilisib; first compound 0.1265 µM) | relative viability (BX 795 + Pictilisib; first compound 0.4 µM) | relative viability (BX 795 + Pictilisib; first compound 1.265 µM)
NCI-H2405 | 1.03 | 0.839 | 0.558 | 0.878 | 0.965 | 1.03 | 0.91 | 0.941 | 0.535 | 0.537 | 0.384 | 0.566 | 1.06 | 1.02 | 0.996 | 1.05 | 0.373 | 0.364 | 0.295 | 0.319
NCI-H3122 | 0.573 | 0.609 | 0.539 | 0.669 | 1.02 | 1.04 | 1.04 | 0.986 | 0.182 | 0.221 | 0.208 | 0.226 | 0.172 | 0.207 | 0.141 | 0.182 | 0.588 | 0.656 | 0.588 | 0.595
PC-3 [JPC-3] | 1.16 |  | 1.04 | 1.09 | 0.768 | 0.822 | 0.86 | 0.861 | 0.539 |  | 0.57 | 0.543 | 1.04 |  | 1.16 | 1.02 | 0.753 | 0.707 | 0.685 | 0.827
PC-14 | 0.241 | 0.298 | 0.139 | 0.236 | 0.866 | 0.978 | 0.875 | 0.582 | 0.516 | 0.498 | 0.485 | 0.318 | 0.0872 | 0.135 | 0.0536 | 0.115 | 0.654 | 0.758 | 0.564 | 0.439
RERF-LC-KJ | 0.919 | 0.963 | 0.945 | 0.409 | 1.09 | 1.23 | 1.14 | 1.02 |  | 1.08 | 1.1 | 0.895 |  | 0.444 | 0.443 | 0.467 | 0.488 | 0.574 | 0.536 | 0.446
SK-LU-1 | 0.484 | 0.519 | 0.31 | 0.413 | 0.902 | 1.12 |  | 0.708 | 0.384 | 0.348 | 0.328 | 0.392 | 0.895 | 0.988 | 0.646 | 0.823 | 0.543 | 0.691 | 0.416 | 0.511
SW 1573 | 0.673 | 0.531 | 0.669 | 0.238 | 1.11 | 1.21 | 1.29 | 0.877 | 0.537 | 0.428 | 0.468 | 0.172 | 0.748 | 0.81 | 0.836 | 0.516 | 0.551 | 0.463 | 0.608 | 0.381
UMC-11 | 0.381 | 0.32 | 0.861 | 0.27 | 0.678 | 0.983 | 0.847 | 0.36 | 0.301 | 0.355 | 0.306 | 0.333 | 0.826 | 0.749 | 0.736 | 0.453 | 0.726 | 0.86 | 0.683 | 0.534
